Assay results published in ChEMBL document CHEMBL3608201, “Synthesis and biological evaluation of levofloxacin core-based derivatives with potent antibacterial activity against resistant Gram-positive pathogens” (Bioorg Med Chem Lett, 2015).
Converted amounts (≈) assume the structure as drawn.

Assays:
Staphylococcus aureus [1] = assay: Potency index, ratio of MIC for moxifloxacin to MIC for test compound against Staphylococcus aureus ATCC 25923 by standard broth microdilution method; type: functional
Streptococcus pneumoniae [2] = assay: Antimicrobial activity against Streptococcus pneumoniae ATCC 49619 by standard broth microdilution method; type: functional
Staphylococcus aureus [3] = assay: Potency index, ratio of MIC for ciprofloxacin to MIC for test compound against Staphylococcus aureus ATCC 25923 by standard broth microdilution method; type: functional
Staphylococcus aureus [4] = assay: Antimicrobial activity against Staphylococcus aureus ATCC 25923 by standard broth microdilution method; type: functional
Staphylococcus aureus [5] = assay: Antimicrobial activity against methicillin-resistant Staphylococcus aureus clinical isolates by standard broth microdilution method; type: functional
Pseudomonas aeruginosa = assay: Antimicrobial activity against Pseudomonas aeruginosa ATCC 27853 by standard broth microdilution method; type: functional
[6] = Aqueous solubility of the compound in water; type: physicochemical
Staphylococcus aureus [7] = assay: Antimicrobial activity against levofloxacin-resistant Staphylococcus aureus clinical isolates by standard broth microdilution method; type: functional
[8] = tested on: Staphylococcus epidermidis; assay: Antimicrobial activity against methicillin-resistant Staphylococcus epidermidis clinical isolates by standard broth microdilution method; type: functional
Escherichia coli [9] = assay: Antimicrobial activity against ciprofloxacin-resistant Escherichia coli clinical isolates by standard broth microdilution method; type: functional
Escherichia coli [10] = assay: Antimicrobial activity against Escherichia coli ATCC 25922 by standard broth microdilution method; type: functional
Streptococcus pneumoniae [11] = assay: Antimicrobial activity against penicillin-resistant Streptococcus pneumoniae clinical isolates by standard broth microdilution method; type: functional
[12] = tested on: Staphylococcus epidermidis; assay: Antimicrobial activity against Staphylococcus epidermidis ATCC 12228 by standard broth microdilution method; type: functional
Streptococcus pyogenes [13] = assay: Antimicrobial activity against Streptococcus pyogenes ATCC 19615 by standard broth microdilution method; type: functional
Streptococcus pyogenes [14] = assay: Potency index, ratio of MIC for ciprofloxacin to MIC for test compound against Streptococcus pyogenes ATCC 19615 by standard broth microdilution method; type: functional
Staphylococcus aureus [15] = assay: Potency index, ratio of MIC for moxifloxacin to MIC for test compound against methicillin-resistant Staphylococcus aureus clinical isolates by standard broth microdilution method; type: functional
Streptococcus pneumoniae [16] = assay: Potency index, ratio of MIC for levofloxacin to MIC for test compound against penicillin-resistant Streptococcus pneumoniae clinical isolates by standard broth microdilution method; type: functional
[17] = Elimination half life in beagle dog at 18.8 mg/kg, iv administered as single dose; type: ADME, organism-based, Canis lupus familiaris; conditions: in vivo, read-out: beta t1/2 (converted)
Streptococcus pneumoniae [18] = assay: Potency index, ratio of MIC for penicillin to MIC for test compound against penicillin-resistant Streptococcus pneumoniae clinical isolates by standard broth microdilution method; type: functional
[19] = Cmax in beagle dog at 18.8 mg/kg, iv administered as single dose; type: ADME, organism-based, Canis lupus familiaris; parameters: dose 18.8 mg/kg, route intravenous; conditions: in vivo
[20] = Toxicity in ICR mouse administered as single intravenous dose; type: organism-based; conditions: in vivo
[21] = Plasma clearance in beagle dog at 18.8 mg/kg, iv administered as single dose; type: ADME, organism-based, Canis lupus familiaris
Streptococcus pyogenes [22] = assay: Potency index, ratio of MIC for levofloxacin to MIC for test compound against Streptococcus pyogenes ATCC 19615 by standard broth microdilution method; type: functional
[23] = Tmax in beagle dog at 18.8 mg/kg, iv administered as single dose; type: ADME, organism-based, Canis lupus familiaris; conditions: in vivo
[24] = Volume of distribution in beagle dog at 18.8 mg/kg, iv administered as single dose; type: ADME, organism-based, Canis lupus familiaris; conditions: in vivo
Streptococcus pyogenes [25] = assay: Potency index, ratio of MIC for penicillin to MIC for test compound against Streptococcus pyogenes ATCC 19615 by standard broth microdilution method; type: functional
[26] = AUC (0 to infinity) in beagle dog at 18.8 mg/kg, iv administered as single dose; type: ADME, organism-based, Canis lupus familiaris; parameters: dose 18.8 mg/kg, time infinity, route intravenous; conditions: in vivo
Streptococcus pneumoniae [27] = assay: Potency index, ratio of MIC for ciprofloxacin to MIC for test compound against penicillin-resistant Streptococcus pneumoniae clinical isolates by standard broth microdilution method; type: functional
Staphylococcus aureus [28] = assay: Potency index, ratio of MIC for levofloxacin to MIC for test compound against methicillin-resistant Staphylococcus aureus clinical isolates by standard broth microdilution method; type: functional

Structure (SMILES)	MIC (Streptococcus pneumoniae [2]) [mg/L]	MIC (Staphylococcus aureus [4]) [mg/L]	MIC (Staphylococcus aureus [5]) [mg/L]	MIC (Pseudomonas aeruginosa) [mg/L]	MIC (Staphylococcus aureus [7]) [mg/L]	MIC [8] [mg/L]	MIC (Escherichia coli [9]) [mg/L]	MIC (Escherichia coli [10]) [mg/L]	MIC (Streptococcus pneumoniae [11]) [mg/L]	MIC [12] [mg/L]	MIC (Streptococcus pyogenes [13]) [mg/L]	also measured
C[C@H]1COc2c(N3CCC(O)CC3)c(F)cc3c(=O)c(C(=O)O)cn1c23	0.125 (≈ 0.345 µM)	0.031 (≈ 0.0856 µM)	1 (≈ 2.76 µM)	2 (≈ 5.52 µM)	0.5 (≈ 1.38 µM)	0.5 (≈ 1.38 µM)	0.25 (≈ 0.69 µM)	0.125 (≈ 0.345 µM)	0.031 (≈ 0.0856 µM)	0.031 (≈ 0.0856 µM)	0.0625 (≈ 0.172 µM)	Ratio (Staphylococcus aureus [1]): 2; Ratio (Staphylococcus aureus [3]): 16; solubility [6]: 0.65 mg/mL (≈ 1790 µM)
C[C@H]1COc2c(N3CCC(O)CC3)c(F)cc3c(=O)c(C(=O)O)cn1c23.N=C(N)NCCC[C@H](N)C(=O)O.O	0.125	0.031	1	2	0.25	1	0.25	0.125	≤ 0.016	0.031	≤ 0.016	Ratio (Streptococcus pyogenes [14]): 32; Ratio (Staphylococcus aureus [15]): 4; solubility [6]: 5.33 mg/mL; Ratio (Streptococcus pneumoniae [16]): 32; half-life [17]: 3.25 h; Ratio (Streptococcus pneumoniae [18]): 64; Cmax [19]: 15.7 µg/mL; LD50 [20]: 1400 mg/kg; clearance [21]: 0.696 L/h/kg; Ratio (Streptococcus pyogenes [22]): 32; Tmax [23]: 4.8 min; Vd [24]: 3.27 L/kg; Ratio (Streptococcus pyogenes [25]): 64; AUC(0-inf) [26]: 27 µg·h/mL; Ratio (Streptococcus pneumoniae [27]): 32
C[C@H]1COc2c(N3CCC(O)CC3)c(F)cc3c(=O)c(C(=O)[O-])cn1c23.[Na+]	0.5	0.0625	4	2	2	2	0.5	0.25	0.125	0.0625	0.125	–
C[C@H]1COc2c(N3CCC(O)CC3)c(F)cc3c(=O)c(C(=O)[O-])cn1c23.[K+]	0.5	0.0625	8	2	4	2	1	0.5	0.25	0.0625	0.25	–
C[C@H]1COc2c(N3CC[C@@H](O)C3)c(F)cc3c(=O)c(C(=O)O)cn1c23	0.25 (≈ 0.718 µM)	0.0625 (≈ 0.179 µM)	4 (≈ 11.5 µM)	8 (≈ 23 µM)	2 (≈ 5.74 µM)	2 (≈ 5.74 µM)	0.5 (≈ 1.44 µM)	0.125 (≈ 0.359 µM)	0.5 (≈ 1.44 µM)	0.0625 (≈ 0.179 µM)	0.25 (≈ 0.718 µM)	–
C[C@H]1COc2c(N3CC[C@H](O)C3)c(F)cc3c(=O)c(C(=O)O)cn1c23	2 (≈ 5.74 µM)	0.031 (≈ 0.089 µM)	1 (≈ 2.87 µM)	1 (≈ 2.87 µM)	0.25 (≈ 0.718 µM)	1 (≈ 2.87 µM)	0.0625 (≈ 0.179 µM)	≤ 0.016	2 (≈ 5.74 µM)	0.031 (≈ 0.089 µM)	2 (≈ 5.74 µM)	Ratio (Staphylococcus aureus [15]): 4; Ratio (Staphylococcus aureus [28]): 32
C[C@H]1COc2c(N3CC[C@H](O)C3)c(F)cc3c(=O)c(C(=O)O)cn1c23.O	0.125	0.031	2	1	0.25	1	0.0625	0.031	≤ 0.016	0.125	≤ 0.016	solubility [6]: 0.37 mg/mL
C[C@H]1COc2c(N3CC[C@H](O)C3)c(F)cc3c(=O)c(C(=O)[O-])cn1c23.[Na+]	4	0.0625	4	2	2	2	0.25	0.0625	4	0.125	4	–
C[C@H]1COc2c(N3CC[C@H](O)C3)c(F)cc3c(=O)c(C(=O)[O-])cn1c23.[K+]	8	0.0625	4	4	2	4	0.5	0.125	4	0.5	4	–
C[C@H]1COc2c(N3CC(O)C3)c(F)cc3c(=O)c(C(=O)O)cn1c23	0.25 (≈ 0.748 µM)	0.0625 (≈ 0.187 µM)	8 (≈ 23.9 µM)	4 (≈ 12 µM)	1 (≈ 2.99 µM)	2 (≈ 5.98 µM)	0.5 (≈ 1.5 µM)	0.125 (≈ 0.374 µM)	0.5 (≈ 1.5 µM)	0.0625 (≈ 0.187 µM)	0.125 (≈ 0.374 µM)	–
O=C(O)c1cn2c3c(c(N4CCC(O)CC4)c(F)cc3c1=O)OC[C@@H]2CF	0.125 (≈ 0.329 µM)	0.0625 (≈ 0.164 µM)	2 (≈ 5.26 µM)	2 (≈ 5.26 µM)	0.5 (≈ 1.31 µM)	1 (≈ 2.63 µM)	2 (≈ 5.26 µM)	1 (≈ 2.63 µM)	0.031 (≈ 0.0815 µM)	0.0625 (≈ 0.164 µM)	0.031 (≈ 0.0815 µM)	–
O=C(O)c1cn2c3c(c(N4CC[C@@H](O)C4)c(F)cc3c1=O)OC[C@@H]2CF	0.5 (≈ 1.36 µM)	0.25 (≈ 0.682 µM)	4 (≈ 10.9 µM)	2 (≈ 5.46 µM)	2 (≈ 5.46 µM)	2 (≈ 5.46 µM)	1 (≈ 2.73 µM)	0.125 (≈ 0.341 µM)	0.25 (≈ 0.682 µM)	0.0625 (≈ 0.171 µM)	0.0625 (≈ 0.171 µM)	–
O=C(O)c1cn2c3c(c(N4CC[C@H](O)C4)c(F)cc3c1=O)OC[C@@H]2CF	0.125 (≈ 0.341 µM)	0.031 (≈ 0.0846 µM)	1 (≈ 2.73 µM)	1 (≈ 2.73 µM)	0.5 (≈ 1.36 µM)	0.5 (≈ 1.36 µM)	0.5 (≈ 1.36 µM)	0.25 (≈ 0.682 µM)	0.031 (≈ 0.0846 µM)	0.031 (≈ 0.0846 µM)	≤ 0.016	solubility [6]: 0.44 mg/mL (≈ 1200 µM)
O=C(O)c1cn2c3c(c(N4CC(O)C4)c(F)cc3c1=O)OC[C@@H]2CF	0.25 (≈ 0.71 µM)	0.125 (≈ 0.355 µM)	–	4 (≈ 11.4 µM)	–	–	–	0.25 (≈ 0.71 µM)	–	0.0625 (≈ 0.177 µM)	0.0625 (≈ 0.177 µM)	–
O=C(O)c1cn(C2CC2)c2cc(N3CCNCC3)c(F)cc2c1=O [CIPROFLOXACIN]	2 (≈ 6.04 µM)	–	–	–	–	–	–	≤ 0.016	–	0.0625 (≈ 0.189 µM)	0.5 (≈ 1.51 µM)	–
C[C@H]1COc2c(N3CCN(C)CC3)c(F)cc3c(=O)c(C(=O)O)cn1c23.C[C@H]1COc2c(N3CCN(C)CC3)c(F)cc3c(=O)c(C(=O)O)cn1c23.O [LEVOFLOXACIN]	–	0.25	32	–	4	8	8	≤ 0.016	–	0.125	0.5	LD50 [20]: 358 mg/kg
COc1c(N2C[C@@H]3CCCN[C@@H]3C2)c(F)cc2c(=O)c(C(=O)O)cn(C3CC3)c12 [MOXIFLOXACIN]	0.25 (≈ 0.623 µM)	–	–	4 (≈ 9.96 µM)	–	–	–	0.031 (≈ 0.0772 µM)	–	≤ 0.016	0.25 (≈ 0.623 µM)	–
CC1(C)S[C@@H]2[C@H](NC(=O)Cc3ccccc3)C(=O)N2[C@H]1C(=O)O [PENICILLIN G]	1 (≈ 2.99 µM)	–	–	–	–	–	–	–	1 (≈ 2.99 µM)	–	1 (≈ 2.99 µM)	–
CN[C@H](CC(C)C)C(=O)N[C@H]1C(=O)N[C@@H](CC(N)=O)C(=O)N[C@H]2C(=O)N[C@H]3C(=O)N[C@H](C(=O)N[C@H](C(=O)O)c4cc(O)cc(O)c4-c4cc3ccc4O)[C@H](O)c3ccc(c(Cl)c3)Oc3cc2cc(c3O[C@@H]2O[C@H](CO)[C@@H](O)[C@H](O)[C@H]2O[C@H]2C[C@](C)(N)[C@H](O)[C@H](C)O2)Oc2ccc(cc2Cl)[C@H]1O [VANCOMYCIN]	0.25 (≈ 0.173 µM)	–	–	–	–	–	–	–	0.125 (≈ 0.0863 µM)	–	0.0625 (≈ 0.0431 µM)	–
